Literature values in article PMC8559537 (ACS infectious diseases, 2021).

Tested on: nanoluciferase (Nluc) expressing C. parvum
Conditions: positive control, 100 mg/kg

CCOc1ccc2cc(-c3nn(CC4CCN(C)CC4)c4ncnc(N)c34)ccc2n1 [BKI-1369]
effect on infection in the IFN-γ KO mouse model: reduce infection quickly
